US20240025863A1, “SOS1 PROTEIN DEGRADERS, PHARMACEUTICAL COMPOSITIONS THEREOF, AND THEIR THERAPEUTIC APPLICATIONS” (BioTheryX, Inc., priority 2020, published 2024)

Legend:
Type in all cases: cell-based
Lovo cells (G13D) = assay: Cell viability assay (CellTiter-Glo), Lovo cells; conditions: Homo sapiens, 72 h; Lovo cells, 3 days incubation, CellTiter-Glo luminescence; read-out: Inhibition of Cancerous Cells IC50 Lovo (G13D)
Method: (§1) H358, H23, SW48, and AsPC-1 cells were cultured in RPMI 1640 media supplemented with 10% fetal bovine serum, streptomycin, and penicillin. Lovo and SW480 cells were cultured in DMEM media supplemented with 10% fetal bovine serum, streptomycin, and penicillin. The cell lines were plated in their respective medium supplemented with 2.5% fetal bovine serum, streptomycin, and penicillin. All cell lines were plated in white walled 96-well plates at 2,000 cells/well or 384-well plates at 500 cells/well, except Lovo, which were plated at 4,000 or 1,000 cells/well, respectively. The cells were incubated in DMSO (control) or a compound for 3 days at 37° C. under 5% CO2. A CELLTITER-GLO® reagent (100 μL) was then added to each well. After a 10 min incubation with shaking, luminescence was measured using an ENVISION® multimode plate reader.

SW480 cells (G12V) = assay: Cell viability assay (CellTiter-Glo), SW480 cells; conditions: Homo sapiens, 72 h; SW480 cells, 3 days incubation, CellTiter-Glo luminescence; read-out: Inhibition of Cancerous Cells IC50 SW480 (G12V)
Method: as §1

SW48 cells (wt) = assay: Cell viability assay (CellTiter-Glo), SW48 cells; conditions: Homo sapiens, 72 h; SW48 cells, 3 days incubation, CellTiter-Glo luminescence; read-out: Inhibition of Cancerous Cells IC50 SW48 (wt)
Method: as §1

H358 cells (G12C) = assay: Cell viability assay (CellTiter-Glo), H358 cells; conditions: Homo sapiens, NCI-H358, 72 h; H358 cells, 3 days incubation, CellTiter-Glo luminescence; read-out: Inhibition of Cancerous Cells IC50 H358 (G12C)
Method: as §1

Row | IC50 (Lovo cells (G13D)) [nM] | IC50 (SW480 cells (G12V)) [nM] | IC50 (SW48 cells (wt)) [nM] | IC50 (H358 cells (G12C)) [nM] | Compound
1 | 230 | 4900 | 510 | 4500 | COc1cc2c(N[C@H](C)c3cccc(Br)c3)nc(C)nc2cc1OCCCCCN1CCN(C(=O)COc2cc3c(cc2F)C(=O)N(C2CCC(=O)NC2=O)C3)CC1 (stereo partly drawn) [Compound A31, 3-(5-(2-(4-(5-((4-(((R)-1-(3-Bromophenyl)ethyl)amino)-6-methoxy-2-methyl-quinazolin-7-yl)oxy)pentyl)piperazin-1-yl)-2-oxoethoxy)-6-fluoro-1-oxoisoindolin-2-yl)-piperidine-2,6-dione]
2 | 180 | 570 | 3300 | > 10000 | COc1cc2c(N[C@H](C)c3cccc(Br)c3)nc(C)nc2cc1OCCCCCCC(=O)N1CCC(CN2CCN(c3cc4c(cc3F)C(=O)N(C3CCC(=O)NC3=O)C4=O)CC2)CC1 (stereo partly drawn) [Compound A33, 5-(4-((1-(7-((4-(((R)-1-(3-Bromophenyl)ethyl)amino)-6-methoxy-2-methyl-quinazolin-7-yl)oxy)heptanoyl)piperidin-4-yl)methyl)piperazin-1-yl)-2-(2,6-dioxopiperidin-3-yl)-6-fluoroisoindoline-1,3-dione]
3 | 300 | 640 | 3400 | > 10000 | COc1cc2c(N[C@H](C)c3cccc(Br)c3)nc(C)nc2cc1OCCCCCCCCC(=O)N1CCC(CN2CCN(c3cc4c(cc3F)C(=O)N(C3CCC(=O)NC3=O)C4=O)CC2)CC1 (stereo partly drawn) [Compound A34, 5-(4-((1-(9-((4-(((R)-1-(3-Bromophenyl)ethyl)amino)-6-methoxy-2-methyl-quinazolin-7-yl)oxy)nonanoyl)piperidin-4-yl)methyl)piperazin-1-yl)-2-(2,6-dioxopiperidin-3-yl)-6-fluoroisoindoline-1,3-dione]
4 | > 10000 | > 10000 | > 10000 | > 10000 | COc1cc2c(N[C@H](C)c3cccc(Br)c3)nc(C)nc2cc1OCCCCCC(=O)NCc1scc2c1CN(C1CCC(=O)NC1=O)C2=O (stereo partly drawn) [Compound A37, 6-((4-(((R)-1-(3-Bromophenyl)ethyl)amino)-6-methoxy-2-methylquinazolin-7-yl)oxy)-N-((5-(2,6-dioxopiperidin-3-yl)-4-oxo-5,6-dihydro-4H-thieno[3,4-c]pyrrol-1-yl)methyl)-hexanamide]
5 | 6100 | 6400 | 7900 | 6300 | COc1cc2c(N[C@H](C)c3cccc(Br)c3)nc(C)nc2cc1OCCCCCCCC(=O)NCc1scc2c1CN(C1CCC(=O)NC1=O)C2=O (stereo partly drawn) [Compound A38, 8-((4-(((R)-1-(3-Bromophenyl)ethyl)amino)-6-methoxy-2-methylquinazolin-7-yl)oxy)-N-((5-(2,6-dioxopiperidin-3-yl)-4-oxo-5,6-dihydro-4H-thieno[3,4-c]pyrrol-1-yl)methyl)-octanamide]
6 | 430 | 470 | 790 | 960 | COc1cc2c(N[C@H](C)c3cccc(Br)c3)nc(C)nc2cc1OCCCCCCCCN1CCC(c2cc3c(cc2F)C(=O)N(C2CCC(=O)NC2=O)C3)CC1 (stereo partly drawn) [Compound A50, 3-(5-(1-(8-((4-(((R)-1-(3-Bromophenyl)ethyl)amino)-6-methoxy-2-methyl-quinazolin-7-yl)oxy)octyl)piperidin-4-yl)-6-fluoro-1-oxoisoindolin-2-yl)piperidine-2,6-dione]
7 | 160 | 640 | 290 | 390 | COc1cc2c(N[C@H](C)c3cccc(Br)c3)nc(C)nc2cc1OCCCCCCCCCCN1CCC(c2cc(F)cc3c2CN(C2CCC(=O)NC2=O)C3=O)CC1 (stereo partly drawn) [Compound A51, 3-(4-(1-(10-((4-(((R)-1-(3-Bromophenyl)ethyl)amino)-6-methoxy-2-methyl-quinazolin-7-yl)oxy)decyl)piperidin-4-yl)-6-fluoro-1-oxoisoindolin-2-yl)piperidine-2,6-dione]

The remaining lines, values behind:

Row | Compound | IC50 (Lovo cells (G13D)) [nM] | IC50 (SW480 cells (G12V)) [nM] | IC50 (SW48 cells (wt)) [nM] | IC50 (H358 cells (G12C)) [nM]
8 | COc1cc2c(N[C@H](C)c3cccc(Br)c3)nc(C)nc2cc1OCCCCCCCCCCC(=O)N1CCC(CN2CCN(c3cc4c(cc3F)C(=O)N(C3CCC(=O)NC3=O)C4=O)CC2)CC1 (stereo partly drawn) [Compound A35, 5-(4-((1-(11-((4-(((R)-1-(3-Bromophenyl)ethyl)amino)-6-methoxy-2-methyl-quinazolin-7-yl)oxy)undecanoyl)piperidin-4-yl)methyl)piperazin-1-yl)-2-(2,6-dioxopiperidin-3-yl)-6-fluoroisoindoline-1,3-dione] | 540 | 2500 | 4100 | > 10000
9 | COc1cc2c(N[C@H](C)c3cccc(Br)c3)nc(C)nc2cc1OCCCCCCCCCC(=O)NCc1scc2c1CN(C1CCC(=O)NC1=O)C2=O (stereo partly drawn) [Compound A39, 10-((4-(((R)-1-(3-Bromophenyl)ethyl)amino)-6-methoxy-2-methylquinazolin-7-yl)oxy)-N-((5-(2,6-dioxopiperidin-3-yl)-4-oxo-5,6-dihydro-4H-thieno[3,4-c]pyrrol-1-yl)-methyl)decanamide] | 790 | 2600 | 210 | 680
10 | COc1cc2c(N[C@H](C)c3cccc(Br)c3)nc(C)nc2cc1OCCCCCCCCCCCCCCCC(=O)NCc1scc2c1CN(C1CCC(=O)NC1=O)C2=O (stereo partly drawn) [Compound A49, 16-((4-(((R)-1-(3-Bromophenyl)ethyl)amino)-6-methoxy-2-methylquinazolin-7-yl)oxy)-N-((5-(2,6-dioxopiperidin-3-yl)-4-oxo-5,6-dihydro-4H-thieno[3,4-c]pyrrol-1-yl)methyl)-hexadecanamide] | 420 | 2800 | 670 | > 10000
11 | CNCc1ccccc1-c1csc([C@@H](C)Nc2nc(C)nc3cc(OCCCCCCCN4CCC(c5cc(F)cc6c5CN(C5CCC(=O)N(C)C5=O)C6=O)CC4)c(OC)cc23)c1 (stereo partly drawn) [Compound A52, 3-(6-Fluoro-4-(1-(7-((6-methoxy-2-methyl-4-(((R)-1-(4-(2-((methylamino)-methyl)phenyl)thiophen-2-yl)ethyl)amino)quinazolin-7-yl)oxy)heptyl)piperidin-4-yl)-1-oxoisoindolin-2-yl)-1-methylpiperidine-2,6-dione] | 42 | 170 | 170 | 210
12 | CNCc1ccccc1-c1csc([C@H](C)Nc2nc(C)nc3cc(OCCCCCCCN4CCC(c5cc(F)cc6c5CN(C5CCC(=O)N(C)C5=O)C6=O)CC4)c(OC)cc23)c1 (stereo partly drawn) [Compound A53, 3-(6-Fluoro-4-(1-(7-((6-methoxy-2-methyl-4-(((S)-1-(4-(2-((methylamino)-methyl)phenyl)thiophen-2-yl)ethyl)amino)quinazolin-7-yl)oxy)heptyl)piperidin-4-yl)-1-oxoisoindolin-2-yl)-1-methylpiperidine-2,6-dione] | 68 | 170 | 170 | 230
13 | CNCc1ccccc1-c1csc([C@@H](C)Nc2nc(C)nc3c(CCCCCCCN4CCC(c5cc(F)cc6c5CN(C5CCC(=O)NC5=O)C6=O)CC4)c(OC)c(OC)cc23)c1 (stereo partly drawn) [Compound A54, 3-(4-(1-(7-(6,7-Dimethoxy-2-methyl-4-(((R)-1-(4-(2-((methylamino)methyl)-phenyl)thiophen-2-yl)ethyl)amino)quinazolin-8-yl)heptyl)piperidin-4-yl)-6-fluoro-1-oxoisoindolin-2-yl)piperidine-2,6-dione] | 130 | 240 | 200 | 360
